Measured values from publication PMC12122562, “Phase 1 studies of the indenoisoquinolines LMP776 and LMP744 in patients with solid tumors and lymphomas” (Cancer Chemotherapy and Pharmacology, 2025).
Values joined by “and” are separate entries in the source; they are usually repeats but may differ in a detail not shown here. Identical values can stand only once. “Also recorded” adds a separate entry of the source.

Tested on: patients with advanced, refractory solid tumors or lymphomas
Assay: Phase 1 trial of LMP744 (NCT03030417): safety, MTD, adverse events (CTCAE v4.03/v5.0)
Format: in vivo, human
From the text: The primary objectives of each study included establishing safety, tolerability, MTD, and recommended phase 2 dose (RP2D) of LMP776 and LMP744 as single agents. The LMP744 study included evaluation of tumor pharmacodynamics as an exploratory objective. Both trials were opened at the National Cancer Institute’s (NCI) Developmental Therapeutics Clinic, and the LMP744 trial was also opened at the University of Pittsburgh Hillman Cancer Center. Both trials used an accelerated dose escalation designs (Simon design 4 for LMP776, Simon design 3 for LMP744) to determine the MTD [30]. Dose levels are listed in Supplementary Table 1. Once the MTD was determined, additional patients were enrolled at that DL in an expansion cohort to evaluate pharmacodynamic changes as described below. LMP776 and LMP744 were administered intravenously through a central line via a 1-h infusion on days 1–5 (QDx5) in 28-day cycles. Both agents were supplied by the NCI Division of Cancer Treatment and Diagnosis (DCTD). The studies were approved by the NIH Institutional Review Board and conducted in accordance with the Declaration of Helsinki.
Patients were enrolled in either NCT01051635 evaluating LMP776 or NCT03030417 evaluating LMP744; these trials were conducted sequentially. Both trials required that patients be ≥ 18 years of age with solid tumors or lymphomas refractory to other treatments. Patients were required to have adequate performance status (Eastern Cooperative Oncology Group [ECOG] performance status ≤ 2), bone marrow function, and organ function as described in the Supplementary Methods. Patients in expansion phases at the MTD were required to have disease amenable to biopsy collection and be willing to undergo research biopsies. All patients provided written informed consent.
Tumor responses were evaluated by serial CT scans according to RECIST v1.1 criteria. CT scans were performed every other cycle during the first year, then every 3 cycles after the first year. Toxicities associated with LMP776 were evaluated according to criteria specified in CTCAE version 4.0; toxicities associated with LMP744 were evaluated according to the criteria specified in CTCAE version 4.03 (on or before March 31, 2018) or version 5.0 (on or after April 1, 2018). Criteria for all versions can be found at https://ctep.cancer.gov/protocolDevelopment/electronic_applications/ctc.htm. Any patient who received a dose of either agent was considered eligible for toxicity evaluation.

[1] = all DLs, highest grade per patient

Structure (SMILES): COc1cc2c3c(n(CCCNCCO)c(=O)c2cc1OC)-c1cc2c(cc1C3=O)OCO2 [LMP744]
- Grade 3 non-hematologic DLTs (DL7 (260 mg/m^2/day)): elevated ALT, AST, and GGT in one patient; also recorded: nausea, vomiting, and dehydration
- Maximum tolerated dose (MTD) (IV QDx5, 28-day cycles (DL6)): 190 mg/m^2/day
- Anemia, grade ≥ 2, prevalence (across all DLs): 36%
- Fatigue, grade ≥ 2, prevalence (across all DLs): 22%
- Lymphopenia, grade ≥ 2, prevalence (across all DLs): 39%
- Alanine aminotransferase increased, grade ≥ 2, Total (%) (all DLs): 2 (6)
- Alkaline phosphatase increased, grade ≥ 2, Total (%) (all DLs): 3 (9)
- Anorexia, grade ≥ 2, Total (%) (all DLs): 2 (6)
- Aspartate aminotransferase increased, grade ≥ 2, Total (%) (all DLs): 2 (6)
- Blood bilirubin increased, grade ≥ 2, Total (%) (all DLs): 2 (6)
- Constipation, grade ≥ 2, Total (%) (all DLs): 1 (3)
- Creatinine increased, grade ≥ 2, Total (%) (all DLs): 5 (14)
- Dehydration, grade ≥ 2, Total (%) (all DLs): 4 (11)
- Diarrhea, grade ≥ 2, Total (%) (all DLs): 1 (3)
- Dry skin, grade ≥ 2, Total (%) (all DLs): 1 (3)
- Edema - limbs, grade ≥ 2, Total (%) (all DLs): 1 (3)
- Febrile Neutropenia, grade ≥ 2, Total (%) (all DLs): 1 (3)
- GGT increased, grade ≥ 2, Total (%) (all DLs): 6 (17)
- Hyperglycemia, grade ≥ 2, Total (%) (all DLs): 1 (3)
- Hypoalbuminemia, grade ≥ 2, Total (%) (all DLs): 1 (3)
- Hypokalemia, grade ≥ 2, Total (%) (all DLs): 2 (6)
- Hypomagnesemia, grade ≥ 2, Total (%) (all DLs): 2 (6)
- Hyponatremia, grade ≥ 2, Total (%) (all DLs): 1 (3)
- Hypophosphatemia, grade ≥ 2, Total (%) (all DLs): 6 (17)
- Hypothyroidism, grade ≥ 2, Total (%) (all DLs): 1 (3)
- Hypoxia, grade ≥ 2, Total (%) (all DLs): 1 (3)
- INR increased, grade ≥ 2, Total (%) (all DLs): 1 (3)
- Infections and infestations - NOS, grade ≥ 2, Total (%) (all DLs): 2 (6)
- Infusion site extravasation, grade ≥ 2, Total (%) (all DLs): 1 (3)
- Leukopenia (White blood cell count decreased), grade ≥ 2, Total (%) (all DLs): 5 (14)
- Nausea, grade ≥ 2, Total (%) (all DLs): 6 (17)
- Neutropenia, grade ≥ 2, Total (%) (all DLs): 5 (14)
- Pain - biopsy site, grade ≥ 2, Total (%) (all DLs): 1 (3)
- Platelet count decreased, grade ≥ 2, Total (%) (all DLs): 2 (6)
- Proteinuria, grade ≥ 2, Total (%) (all DLs): 2 (6)
- Sudden death - NOS, Total (%) (all DLs): 1 (3)
- Thrombophlebitis - superficial, grade ≥ 2, Total (%) (all DLs): 1 (3)
- Urinary tract infection, grade ≥ 2, Total (%) (all DLs): 1 (3)
- Vomiting, grade ≥ 2, Total (%) (all DLs): 6 (17)
- Weight loss, grade ≥ 2, Total (%) (all DLs): 4 (11)
- White blood cell count increased, grade ≥ 2, Total (%) (all DLs): 1 (3)
- Anemia, grade ≥ 2, Total (%) [1]: 13 (37) and 13 (36)
- Fatigue, grade ≥ 2, Total (%) [1]: 8 (23) and 8 (22)
- Patients requiring dose reductions (enrolled at DL6 (n = 6) or DL7 (n = 5)): Eleven
- Alanine aminotransferase increased, patients (grade 2, DL1-DL5): 1
- Alkaline phosphatase increased, patients (grade 2, DL1-DL5): 1
- Anemia, patients (grade 2, DL1-DL5): 2
- Edema - limbs, patients (grade 2, DL1-DL5): 1
- GGT increased, patients (grade 2, DL1-DL5): 1
- Hypophosphatemia, patients (grade 2, DL1-DL5): 1
- Proteinuria, patients (grade 2, DL1-DL5): 1
- Vomiting, patients (grade 2, DL1-DL5): 1
- Lymphopenia (Lymphocyte count decreased), patients (grade 2, DL1-DL5 (n = 7)): 1
- Alanine aminotransferase increased, patients (grade 2, DL6): 1
- Alkaline phosphatase increased, patients (grade 2, DL6): 1
- Anemia, patients (grade 2, DL6): 4
- Anorexia, patients (grade 2, DL6): 1
- Aspartate aminotransferase increased, patients (grade 2, DL6): 1
- Blood bilirubin increased, patients (grade 2, DL6): 1
- Constipation, patients (grade 2, DL6): 1
- Creatinine increased, patients (grade 2, DL6): 3
- Dehydration, patients (grade 2, DL6): 1
- Diarrhea, patients (grade 2, DL6): 1
- Dry skin, patients (grade 2, DL6): 1
- Fatigue, patients (grade 2, DL6): 6
- GGT increased, patients (grade 2, DL6): 3
- Hyperglycemia, patients (grade 2, DL6): 1
- Hypoalbuminemia, patients (grade 2, DL6): 1
- Hypomagnesemia, patients (grade 2, DL6): 1
- Hyponatremia, patients (grade 2, DL6): 1
- Hypophosphatemia, patients (grade 2, DL6): 4
- Hypothyroidism, patients (grade 2, DL6): 1
- Infections and infestations - NOS, patients (grade 2, DL6): 2
- Infusion site extravasation, patients (grade 2, DL6): 1
- Leukopenia (White blood cell count decreased), patients (grade 2, DL6): 3
- Nausea, patients (grade 2, DL6): 3
- Neutropenia, patients (grade 2, DL6): 3
- Pain - biopsy site, patients (grade 2, DL6): 1
- Platelet count decreased, patients (grade 2, DL6): 1
- Proteinuria, patients (grade 2, DL6): 1
- Thrombophlebitis - superficial, patients (grade 2, DL6): 1
- Urinary tract infection, patients (grade 2, DL6): 1
- Vomiting, patients (grade 2, DL6): 4
- Weight loss, patients (grade 2, DL6): 4
- White blood cell count increased, patients (grade 2, DL6): 1
- Lymphopenia (Lymphocyte count decreased), patients (grade 2, DL6 (n = 18; suppl. n=17)): 1
- Alkaline phosphatase increased, patients (grade 2, DL7): 1
- Anemia, patients (grade 2, DL7): 7
- Anorexia, patients (grade 2, DL7): 1
- Blood bilirubin increased, patients (grade 2, DL7): 1
- Creatinine increased, patients (grade 2, DL7): 2
- Dehydration, patients (grade 2, DL7): 1
- Fatigue, patients (grade 2, DL7): 2
- Hypomagnesemia, patients (grade 2, DL7): 1
- Hypophosphatemia, patients (grade 2, DL7): 1
- INR increased, patients (grade 2, DL7): 1
- Leukopenia (White blood cell count decreased), patients (grade 2, DL7): 1
- Nausea, patients (grade 2, DL7): 1
- Platelet count decreased, patients (grade 2, DL7): 1
- Vomiting, patients (grade 2, DL7): 1
- Lymphopenia (Lymphocyte count decreased), patients (grade 2, DL7 (n = 11)): 4
- Alanine aminotransferase increased, patients (grade 2, all DLs (n=35)): 2
- Alkaline phosphatase increased, patients (grade 2, all DLs (n=35)): 3
- Anemia, patients (grade 2, all DLs (n=35)): 13
- Anorexia, patients (grade 2, all DLs (n=35)): 2
- Aspartate aminotransferase increased, patients (grade 2, all DLs (n=35)): 1
- Blood bilirubin increased, patients (grade 2, all DLs (n=35)): 2
- Constipation, patients (grade 2, all DLs (n=35)): 1
- Creatinine increased, patients (grade 2, all DLs (n=35)): 5
- Dehydration, patients (grade 2, all DLs (n=35)): 2
- Diarrhea, patients (grade 2, all DLs (n=35)): 1
- Dry skin, patients (grade 2, all DLs (n=35)): 1
- Edema - limbs, patients (grade 2, all DLs (n=35)): 1
- Fatigue, patients (grade 2, all DLs (n=35)): 8
- GGT increased, patients (grade 2, all DLs (n=35)): 4
- Hyperglycemia, patients (grade 2, all DLs (n=35)): 1
- Hypoalbuminemia, patients (grade 2, all DLs (n=35)): 1
- Hypomagnesemia, patients (grade 2, all DLs (n=35)): 2
- Hyponatremia, patients (grade 2, all DLs (n=35)): 1
- Hypophosphatemia, patients (grade 2, all DLs (n=35)): 6
- Hypothyroidism, patients (grade 2, all DLs (n=35)): 1
- INR increased, patients (grade 2, all DLs (n=35)): 1
- Infections and infestations - NOS, patients (grade 2, all DLs (n=35)): 2
- Infusion site extravasation, patients (grade 2, all DLs (n=35)): 1
- Lymphocyte count decreased, patients (grade 2, all DLs (n=35)): 6
- Nausea, patients (grade 2, all DLs (n=35)): 4
- Neutropenia, patients (grade 2, all DLs (n=35)): 3
- Platelet count decreased, patients (grade 2, all DLs (n=35)): 3
- Proteinuria, patients (grade 2, all DLs (n=35)): 2
- Thrombophlebitis - superficial, patients (grade 2, all DLs (n=35)): 1
- Urinary tract infection, patients (grade 2, all DLs (n=35)): 1
- Vomiting, patients (grade 2, all DLs (n=35)): 6
- Weight loss, patients (grade 2, all DLs (n=35)): 4
- White blood cell count decreased, patients (grade 2, all DLs (n=35)): 4
- White blood cell count increased, patients (grade 2, all DLs (n=35)): 1
- Dehydration, patients (grade 3, DL6): 1
- Febrile Neutropenia, patients (grade 3, DL6): 1
- GGT increased, patients (grade 3, DL6): 1
- Hypokalemia, patients (grade 3, DL6): 1
- Hypoxia, patients (grade 3, DL6): 1
- Lymphopenia (Lymphocyte count decreased), patients (grade 3, DL6): 5
- Nausea, patients (grade 3, DL6): 1
- Neutropenia, patients (grade 3, DL6): 1
- Aspartate aminotransferase increased, patients (grade 3, DL7): 1
- Dehydration, patients (grade 3, DL7): 1
- GGT increased, patients (grade 3, DL7): 1
- Hypokalemia, patients (grade 3, DL7): 1
- Lymphopenia (Lymphocyte count decreased), patients (grade 3, DL7): 2
- Nausea, patients (grade 3, DL7): 1
- Aspartate aminotransferase increased, patients (grade 3, all DLs (n=35)): 1
- Dehydration, patients (grade 3, all DLs (n=35)): 1
- Febrile Neutropenia, patients (grade 3, all DLs (n=35)): 1
- GGT increased, patients (grade 3, all DLs (n=35)): 2
- Hypokalemia, patients (grade 3, all DLs (n=35)): 2
- Hypoxia, patients (grade 3, all DLs (n=35)): 1
- Lymphocyte count decreased, patients (grade 3, all DLs (n=35)): 7
- Nausea, patients (grade 3, all DLs (n=35)): 2
- Neutropenia, patients (grade 3, all DLs (n=35)): 1
- Leukopenia (White blood cell count decreased), patients (grade 4, DL6): 1
- Lymphopenia (Lymphocyte count decreased), patients (grade 4, DL6): 1
- Neutropenia, patients (grade 4, DL6): 1
- Lymphocyte count decreased, patients (grade 4, all DLs (n=35)): 1
- Neutropenia, patients (grade 4, all DLs (n=35)): 1
- White blood cell count decreased, patients (grade 4, all DLs (n=35)): 1
- Sudden death - NOS, patients (grade 5, DL7): 1
- Death considered possibly related to treatment (one patient, DL7): grade 5 sudden death – NOS; also recorded: died of a pulmonary embolism
